Measured values as given in ChEMBL document CHEMBL4418493, “N-hydroxyformamide compounds and compositions comprising them for use as BMP1, TLL1 and/or TLL2 inhibitors” (2018).

What was measured:
[1] = Drug metabolism in heparinized pooled human plasma at pH 7.5 assessed as formation of (S)-2-(2-ethoxy-4-(5-((((R)-2-((R)-1-(N-hydroxyformamido)propyl)heptanamido)methyl) carbamoyl)furan-2-yl)benzamido)succinic acid at 100 to 2000 ng/ml incubated up to 4 or 24 hrs by LC-MS/MS analysis; format: ADME, cell-free; conditions: pH 7.5, 24 h
[2] = Reduction in PICP levels in human cardiac fibroblasts incubated for 24 to 48 hrs by ELISA; format: functional
[3] = Drug metabolism in heparinized pooled human plasma at pH 7.5 assessed as formation of (S)-2-(2-(carboxymethoxy)-4-(5-((((R)-2-((R)-1-(N-hydroxyformamido)propyl)heptanamido)methyl)carbamoyl)furan-2-yl)benzamido)succinic acid at 100 to 2000 ng/ml incubated up to 4 or 24 hrs by LC-MS/MS analysis; format: ADME, cell-free; conditions: pH 7.5, 24 h

SMILES | Drug metabolism [1] | IC50 [2] [µM] | Drug metabolism [3]
CCCCC[C@@H](C(=O)NCNC(=O)c1ccc(-c2ccc(C(=O)N[C@@H](CC(=O)O)C(=O)OCc3oc(=O)oc3C)c(OCC)c2)o1)[C@@H](CC)N(O)C=O | Metabolite_Detected | – | –
CCCCC[C@@H](C(=O)NCNC(=O)c1ccc(-c2ccc(C(=O)N[C@@H](CC(=O)O)C(=O)O)c(OCC)c2)o1)[C@@H](CC)N(C=O)OC(=O)c1ccc(OC)cc1Cl | Metabolite_Detected | – | –
CCCCC[C@@H](C(=O)NCNC(=O)c1ccc(-c2ccc(C(=O)N[C@@H](CC(=O)O)C(=O)O)c(OCC)c2)o1)[C@@H](CC)N(C=O)OC(=O)c1ccc(-n2cccn2)cc1 | Metabolite_Detected | < 3.98 | –
CCCCC[C@@H](C(=O)NCNC(=O)c1ccc(-c2ccc(C(=O)N[C@@H](CC(=O)O)C(=O)O)c(OCC)c2)o1)[C@@H](CC)N(C=O)OC(=O)c1ccc(-n2ccnc2)cc1 | Metabolite_Detected | < 3.98 | –
CCCCC[C@@H](C(=O)NCNC(=O)c1ccc(-c2ccc(C(=O)N[C@@H](CC(=O)O)C(=O)O)c(OCC)c2)o1)[C@@H](CC)N(C=O)OC(=O)c1cccc(N)c1 | Metabolite_Detected | – | –
CCCCC[C@@H](C(=O)NCNC(=O)c1ccc(-c2ccc(C(=O)N[C@@H](CC(=O)O)C(=O)O)c(OCC)c2)o1)[C@@H](CC)N(C=O)OC(=O)c1ccc(N)cc1 | Metabolite_Detected | – | –
CCCCC[C@@H](C(=O)NCNC(=O)c1ccc(-c2ccc(C(=O)N[C@@H](CC(=O)O)C(=O)O)c(OCC)c2)o1)[C@@H](CC)N(C=O)OC(=O)c1ccc(CN2CCOCC2)cc1 | Metabolite_Detected | < 3.98 | –
CCCCC[C@@H](C(=O)NCNC(=O)c1ccc(-c2ccc(C(=O)N[C@@H](CC(=O)O)C(=O)O)c(OCC)c2)o1)[C@@H](CC)N(C=O)OC(=O)c1ccc(N(C)S(C)(=O)=O)cc1 | Metabolite_Detected | < 3.98 | –
CCCCC[C@@H](C(=O)NCNC(=O)c1ccc(-c2ccc(C(=O)N[C@@H](CC(=O)O)C(=O)O)c(OCC(=O)O)c2)o1)[C@@H](CC)N(C=O)OP(=O)(N[C@@H](C)C(=O)OC)Oc1ccccc1.N.N.N (some centres undefined) | – | – | Metabolite_Detected
CCCCC[C@@H](C(=O)NCNC(=O)c1ccc(-c2ccc(C(=O)N[C@@H](CC(=O)O)C(=O)O)c(OCC)c2)o1)[C@@H](CC)N(C=O)OC(=O)c1ccc(OC)cc1C(C)C | Metabolite_Detected | – | –
CCCCC[C@@H](C(=O)NCNC(=O)c1ccc(-c2ccc(C(=O)N[C@@H](CC(=O)O)C(=O)O)c(OCC)c2)o1)[C@@H](CC)N(C=O)OCOC(=O)C(C)(C)C | Metabolite_Detected | < 3.98 | –
CCCCC[C@@H](C(=O)NCNC(=O)c1ccc(-c2ccc(C(=O)N[C@@H](CC(=O)O)C(=O)O)c(OCC)c2)o1)[C@@H](CC)N(C=O)OC(=O)c1c(C)cccc1F | Metabolite_Detected | < 3.98 | –
CCCCC[C@@H](C(=O)NCNC(=O)c1ccc(-c2ccc(C(=O)N[C@@H](CC(=O)O)C(=O)O)c(OCC)c2)o1)[C@@H](CC)N(C=O)OC(=O)C(CC)CC | Metabolite_Detected | < 3.98 | –
CCCCC[C@@H](C(=O)NCNC(=O)c1ccc(-c2ccc(C(=O)N[C@@H](CC(=O)O)C(=O)Oc3ccccc3)c(OCC)c2)o1)[C@@H](CC)N(O)C=O | Metabolite_Detected | – | –
CCCCC[C@@H](C(=O)NCNC(=O)c1ccc(-c2ccc(C(=O)N[C@@H](CC(=O)O)C(=O)O)c(OCC)c2)o1)[C@@H](CC)N(C=O)OC(=O)c1ccc(OC)cc1Br | Metabolite_Detected | – | –
CCCCC[C@@H](C(=O)NCNC(=O)c1ccc(-c2ccc(C(=O)N[C@@H](CC(=O)O)C(=O)O)c(OCC)c2)o1)[C@@H](CC)N(C=O)OC(=O)c1ccc(F)cc1C(C)C | Metabolite_Detected | < 3.98 | –
CCCCC[C@@H](C(=O)NCNC(=O)c1ccc(-c2ccc(C(=O)N[C@@H](CC(=O)O)C(=O)O)c(OCC)c2)o1)[C@@H](CC)N(C=O)OC(=O)c1cccc(N2CCCC2)c1.N.N | Metabolite_Detected | < 3.98 | –
CCCCC[C@@H](C(=O)NCNC(=O)c1ccc(-c2ccc(C(=O)N[C@@H](CC(=O)O)C(=O)O)c(OCC)c2)o1)[C@@H](CC)N(C=O)OC(=O)c1ccc([N+](=O)[O-])cc1C | Metabolite_Detected | – | –
CCCCC[C@@H](C(=O)NCNC(=O)c1ccc(-c2ccc(C(=O)N[C@@H](CC(=O)O)C(=O)O)c(OCC(=O)O)c2)o1)[C@@H](CC)N(C=O)OC(=O)c1c(C)cccc1F | – | – | Metabolite_Detected
CCCCC[C@@H](C(=O)NCNC(=O)c1ccc(-c2ccc(C(=O)N[C@@H](CC(=O)O)C(=O)O)c(OCC)c2)o1)[C@@H](CC)N(C=O)OC(=O)c1ccc2c(c1)OCCO2.N.N | Metabolite_Detected | < 3.98 | –
CCCCC[C@@H](C(=O)NCNC(=O)c1ccc(-c2ccc(C(=O)N[C@@H](CC(=O)O)C(=O)O)c(OCC)c2)o1)[C@@H](CC)N(C=O)OC(=O)c1cccc(NC)c1 | Metabolite_Detected | – | –

SMILES | Drug metabolism [1] | IC50 [2] [µM] | Drug metabolism [3]
CCCCC[C@@H](C(=O)NCNC(=O)c1ccc(-c2ccc(C(=O)N[C@@H](CC(=O)O)C(=O)O)c(OCC)c2)o1)[C@@H](CC)N(C=O)OC(=O)c1ccc(OCCOCCO)cc1 | Metabolite_Detected | < 3.98 | –
CCCCC[C@@H](C(=O)NCNC(=O)c1ccc(-c2ccc(C(=O)N[C@@H](CC(=O)O)C(=O)O)c(OCC)c2)o1)[C@@H](CC)N(C=O)OC(=O)NC(C)C | Metabolite_Detected | < 3.98 | –
CCCCC[C@@H](C(=O)NCNC(=O)c1ccc(-c2ccc(C(=O)N[C@@H](CC(=O)O)C(=O)O)c(OCC)c2)o1)[C@@H](CC)N(C=O)OC(=O)c1ccc2c(c1)N(C)CCO2.N.N | Metabolite_Detected | < 3.98 | –
CCCCC[C@@H](C(=O)NCNC(=O)c1ccc(-c2ccc(C(=O)N[C@@H](CC(=O)O)C(=O)O)c(OCC)c2)o1)[C@@H](CC)N(C=O)OC(=O)c1ccc(-n2cccc2)cc1.N.N | Metabolite_Detected | – | –
CCCCC[C@@H](C(=O)NCNC(=O)c1ccc(-c2ccc(C(=O)N[C@@H](CC(=O)O)C(=O)O)c(OCC)c2)o1)[C@@H](CC)N(C=O)OC(=O)c1ccc(N2CCCC2=O)cc1.N.N | Metabolite_Detected | < 3.98 | –
CCCCC[C@@H](C(=O)NCNC(=O)c1ccc(-c2ccc(C(=O)N[C@@H](CC(=O)O)C(=O)O)c(OCC)c2)o1)[C@@H](CC)N(C=O)OC(=O)c1ccc(OC)cc1C.N.N | Metabolite_Detected | – | –
CCCCC[C@@H](C(=O)NCNC(=O)c1ccc(-c2ccc(C(=O)N[C@@H](CC(=O)O)C(=O)O)c(OCC(=O)O)c2)o1)[C@@H](CC)N(C=O)OC(=O)Nc1ccccc1 | – | – | Metabolite_Detected
CCCCC[C@@H](C(=O)NCNC(=O)c1ccc(-c2ccc(C(=O)N[C@@H](CC(=O)O)C(=O)O)c(OCC)c2)o1)[C@@H](CC)N(C=O)OC(=O)c1ccc(OC)cc1 | Metabolite_Detected | < 3.98 | –
CCCCC[C@@H](C(=O)NCNC(=O)c1ccc(-c2ccc(C(=O)N[C@@H](CC(=O)O)C(=O)O)c(OCC)c2)o1)[C@@H](CC)N(C=O)OC(=O)c1c(C)cccc1OP(=O)(O)O | Metabolite_Detected | – | –
CCCCC[C@@H](C(=O)NCNC(=O)c1ccc(-c2ccc(C(=O)N[C@@H](CC(=O)O)C(=O)O)c(OCC)c2)o1)[C@@H](CC)N(C=O)OC(=O)c1ccc(F)cc1C | Metabolite_Detected | < 3.98 | –
CCCCC[C@@H](C(=O)NCNC(=O)c1ccc(-c2ccc(C(=O)N[C@@H](CC(=O)O)C(=O)O)c(OCC)c2)o1)[C@@H](CC)N(C=O)OC(=O)c1ccc(NC)cc1 | Metabolite_Detected | – | –
CCCCC[C@@H](C(=O)NCNC(=O)c1ccc(-c2ccc(C(=O)N[C@@H](CC(=O)O)C(=O)OCOC(=O)C(C)C)c(OCC)c2)o1)[C@@H](CC)N(O)C=O | Metabolite_Detected | < 3.98 | –
CCCCC[C@@H](C(=O)NCNC(=O)c1ccc(-c2ccc(C(=O)N[C@@H](CC(=O)O)C(=O)O)c(OCC)c2)o1)[C@@H](CC)N(C=O)OC(=O)c1ccc(OC)c(OC)c1 | Metabolite_Detected | < 3.98 | –
CCCCC[C@@H](C(=O)NCNC(=O)c1ccc(-c2ccc(C(=O)N[C@@H](CC(=O)O)C(=O)O)c(OCC)c2)o1)[C@@H](CC)N(C=O)OC(=O)Nc1ccccc1 | Metabolite_Detected | – | –
CCCCC[C@@H](C(=O)NCNC(=O)c1ccc(-c2ccc(C(=O)N[C@@H](CC(=O)O)C(=O)O)c(OCC(=O)O)c2)o1)[C@@H](CC)N(C=O)OC(=O)c1cccc(C(=O)O)c1 | – | – | Metabolite_Detected
CCCCC[C@@H](C(=O)NCNC(=O)c1ccc(-c2ccc(C(=O)N[C@@H](CC(=O)O)C(=O)O)c(OCC)c2)o1)[C@@H](CC)N(C=O)OC(=O)c1ccc(CN)cc1 | Metabolite_Detected | – | –
CCCCC[C@@H](C(=O)NCNC(=O)c1ccc(-c2ccc(C(=O)N[C@@H](CC(=O)O)C(=O)O)c(OCC)c2)o1)[C@@H](CC)N(C=O)OC(=O)C1CCNCC1.O=C(O)C(F)(F)F | Metabolite_Detected | < 3.98 | –
CCCCC[C@@H](C(=O)NCNC(=O)c1ccc(-c2ccc(C(=O)N[C@@H](CC(=O)O)C(=O)O)c(OCC)c2)o1)[C@@H](CC)N(C=O)OC(=O)c1ccc(C(F)(F)F)cc1 | Metabolite_Detected | < 3.98 | –
CCCCC[C@@H](C(=O)NCNC(=O)c1ccc(-c2ccc(C(=O)N[C@@H](CC(=O)O)C(=O)O)c(OCC)c2)o1)[C@@H](CC)N(C=O)OC(=O)c1ccc(CN2CCOCC2)cc1C | Metabolite_Detected | < 3.98 | –
CCCCC[C@@H](C(=O)NCNC(=O)c1ccc(-c2ccc(C(=O)N[C@@H](CC(=O)O)C(=O)O)c(OCC)c2)o1)[C@@H](CC)N(C=O)OC(=O)c1ccc([N+](=O)[O-])cc1 | Metabolite_Detected | < 3.98 | –
CCCCC[C@@H](C(=O)NCNC(=O)c1ccc(-c2ccc(C(=O)N[C@@H](CC(=O)O)C(=O)O)c(OCC)c2)o1)[C@@H](CC)N(C=O)OC(=O)c1cccc(N(C)C)c1 | Metabolite_Detected | – | –
